# Laboratory results reported in patent US8367328B2, “Method for synthesizing DNA” (Takara Bio Inc., priority 1998, dated 2013).
# Molecular target: T1, Pfu DNA Polymerase II (Pyrococcus furiosus, UniProt P81409+P81412)
# T1 construct: made in house; host or cells: Escherichia coli JM109/pFU1001 (FERM BP-5579)
# T1 sequence (P81409 1-1263): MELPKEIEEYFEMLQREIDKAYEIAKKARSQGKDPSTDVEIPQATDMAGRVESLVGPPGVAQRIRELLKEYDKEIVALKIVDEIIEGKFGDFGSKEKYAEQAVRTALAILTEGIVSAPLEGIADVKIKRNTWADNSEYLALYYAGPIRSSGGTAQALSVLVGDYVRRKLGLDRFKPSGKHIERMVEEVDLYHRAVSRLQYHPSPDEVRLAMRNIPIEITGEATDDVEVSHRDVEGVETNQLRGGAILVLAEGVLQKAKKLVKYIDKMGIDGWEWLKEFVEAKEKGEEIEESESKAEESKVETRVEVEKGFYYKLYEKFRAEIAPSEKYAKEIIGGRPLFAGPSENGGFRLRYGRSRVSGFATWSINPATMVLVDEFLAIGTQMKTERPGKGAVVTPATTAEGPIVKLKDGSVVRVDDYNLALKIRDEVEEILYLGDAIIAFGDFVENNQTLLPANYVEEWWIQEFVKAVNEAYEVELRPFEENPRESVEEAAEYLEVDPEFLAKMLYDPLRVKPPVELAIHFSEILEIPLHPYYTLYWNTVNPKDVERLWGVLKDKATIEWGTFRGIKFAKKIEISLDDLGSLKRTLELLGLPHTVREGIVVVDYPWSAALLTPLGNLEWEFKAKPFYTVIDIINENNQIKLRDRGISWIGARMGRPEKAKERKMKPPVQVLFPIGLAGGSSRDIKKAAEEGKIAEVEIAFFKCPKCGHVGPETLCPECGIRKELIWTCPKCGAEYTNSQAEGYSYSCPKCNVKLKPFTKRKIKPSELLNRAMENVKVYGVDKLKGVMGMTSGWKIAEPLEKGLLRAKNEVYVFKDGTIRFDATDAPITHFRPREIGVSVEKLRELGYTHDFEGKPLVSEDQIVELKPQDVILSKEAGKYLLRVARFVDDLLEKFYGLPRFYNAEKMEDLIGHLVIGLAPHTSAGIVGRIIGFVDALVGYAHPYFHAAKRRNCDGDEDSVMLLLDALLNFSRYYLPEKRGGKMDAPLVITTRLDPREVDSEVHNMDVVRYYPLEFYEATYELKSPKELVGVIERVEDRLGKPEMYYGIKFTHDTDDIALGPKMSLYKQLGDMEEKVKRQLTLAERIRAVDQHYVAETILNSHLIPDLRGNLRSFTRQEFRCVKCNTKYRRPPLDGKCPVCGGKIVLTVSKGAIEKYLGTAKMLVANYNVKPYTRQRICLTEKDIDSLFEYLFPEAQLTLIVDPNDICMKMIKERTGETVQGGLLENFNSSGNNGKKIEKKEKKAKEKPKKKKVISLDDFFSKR
# T1 sequence (P81412 1-613): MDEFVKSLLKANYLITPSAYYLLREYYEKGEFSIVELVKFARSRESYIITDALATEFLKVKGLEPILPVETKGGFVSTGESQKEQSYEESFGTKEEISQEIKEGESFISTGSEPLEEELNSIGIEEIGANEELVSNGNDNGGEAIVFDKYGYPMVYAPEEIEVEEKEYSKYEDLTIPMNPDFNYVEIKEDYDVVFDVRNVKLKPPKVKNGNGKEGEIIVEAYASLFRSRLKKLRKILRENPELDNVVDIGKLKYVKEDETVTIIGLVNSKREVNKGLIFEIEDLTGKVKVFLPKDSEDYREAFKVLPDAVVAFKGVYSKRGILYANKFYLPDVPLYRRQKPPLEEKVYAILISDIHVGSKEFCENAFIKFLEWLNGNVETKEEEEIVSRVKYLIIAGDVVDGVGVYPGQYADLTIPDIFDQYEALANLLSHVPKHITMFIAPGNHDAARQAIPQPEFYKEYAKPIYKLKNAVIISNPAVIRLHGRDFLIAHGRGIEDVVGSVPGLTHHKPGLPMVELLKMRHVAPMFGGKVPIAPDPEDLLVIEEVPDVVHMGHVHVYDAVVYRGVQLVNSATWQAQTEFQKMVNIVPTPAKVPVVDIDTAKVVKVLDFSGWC
# Experiment: PCR with Pfu DNA Polymerase II in the presence of acidic substances (λDNA template)
# Type: biochemical
# Details: 1 kb fragment, 500 pg λDNA, primers λ1/λ3, 30 cycles 98°C 5 s–66°C 15 s
# Procedure: A reaction mixture comprising λDNA as a template, primers λ1 and λ3 as a primer pair, and Pfu DNA Polymerase II as DNA polymerase was prepared, and PCR was carried out. The composition of the reaction mixture is as follows.
# 10 mM Tris-hydrochloric acid (pH 9.2), 75 mM potassium chloride, 6 mM magnesium chloride, 0.4 mM each of dATP, dCTP, dGTP and dTTP, 0.01% BSA, 1.25 U of Pfu DNA Polymerase II, 500 pg of λDNA, and 5 pmol each of primers λ1 and λ3 (a final volume being 25 μl). […]
# Using the sulfated-fucose-containing Polysaccharide-F obtained in Example 6 described above, dextran sulfate powder (manufactured by Onco), or sodium alginate (100 to 150 centipoises, manufactured by Wako Pure Chemicals), the effects of these acidic substances on the activity of Pfu DNA Polymerase II were examined. A reaction mixture comprising λDNA as a template, primers λ1 and λ2 as a primer pair, and Pfu DNA Polymerase II as DNA polymerase was prepared, and PCR was carried out. The composition of the reaction mixture is as follows.
# (§1) 10 mM Tris-hydrochloric acid, pH 9.2, 75 mM potassium chloride, 6 mM magnesium chloride, 0.4 mM each of dATP, dCTP, dGTP and dTTP, 0.01% BSA, 1.25 U of Pfu DNA Polymerase II, 100 pg of λDNA, and 5 pmol each of primers λ1 and λ2 (a final volume being 25 μl). Further, 10 ng of the sulfated-fucose-containing polysaccharide-F, 10 ng of dextran sulfate powder, or 1 μg of sodium alginate was respectively added to the above reaction mixture.
# (§2) The reaction in 25 cycles was carried out for each of these reaction mixtures, wherein one cycle of reaction comprises a process consisting of 98° C., 5 seconds—66° C., 15 seconds. Thereafter, 5 μl of the resulting reaction mixture was subjected to electrophoresis on 1% agarose gel containing ethidium bromide in an amount of 0.00005%, whereby an amplified fragment was confirmed.
# Further, studies were conducted on the effects of the sulfated-fucose-containing polysaccharide-F obtained in Example 6 described above, the sulfated-fucose-containing polysaccharide-U obtained in Example 7 described above, or sodium polyglutamate (manufactured by Sigma) as an acidic substance. A reaction mixture for PCR was prepared in the same manner as described above except for changing the amount of template λDNA to 500 pg and the primer pairs to primers λ1 and λ3. Five nanograms of the sulfated-fucose-containing polysaccharide-F, 5 ng, 10 ng, 20 ng or 30 ng each of the sulfated-fucose-containing polysaccharide-U, or 250 ng, 500 ng, 750 ng or 1000 ng each of sodium polyglutamate was respectively added to the above reaction mixture.
# as §2, with “reaction” for “reaction in 25 cycles”, “in 30 cycles,” for “for each of these reaction mixtures,”, “After the termination of the reaction,” for “Thereafter,”
# Using the sulfated-fucose-containing polysaccharide-F obtained in Example 6 described above, the effects on the activity of Pfu DNA Polymerase II were examined. A reaction mixture comprising λDNA as a template, primers λ1 and λ2 as a primer pair, and Pfu DNA Polymerase II as DNA polymerase was prepared, and PCR was carried out. The composition of the reaction mixture is as follows.
# as §1, with “500” for “100”, “polysaccharide-F” for “polysaccharide-F, 10 ng of dextran sulfate powder, or 1 μg of sodium alginate”
# The reaction in 30 cycles was carried out for each of these reaction mixtures, wherein one cycle of reaction comprises a process consisting of 98° C., 5 seconds—66° C., 15 seconds. […]
substance,measurement,setting,value
sodium polyglutamate,Amplification Results,amount added 250 ng,+ (Amplification being observed)
same,Amplification Results,amount added 500 ng,+ (Amplification being observed)
same,Amplification Results,amount added 750 ng,++ (Intensive amplification being observed)
same,Amplification Results,amount added 1000 ng,+ (Amplification being observed)
